In patent publication US20240076347A1, “METHODS FOR PREVENTING FUNGAL INFECTIONS” (Cidara Therapeutics, Inc., priority 2016, published 2024):

Key:
Candida auris = assay: Murine model of disseminated candidiasis (immunosuppressed CD-1 mice), treatment; type: in vivo; conditions: 20 mg/kg PO, 2 doses; Day 14
Experimental: Female 6-8 week old CD-1 mice were immunosuppressed with cyclophosphamide (200 mg/kg) 3 days prior to infection and 150 mg/kg 1 day post-infection. On the day of infection, mice were inoculated with 3×10^7 C. auris blastospores via the lateral tail vein. Mice were randomized into 5 groups (n=5 for colony forming units (CFU) and n=10 for survival): CD101 20 mg/kg administered by intraperitoneal (IP) injection, fluconazole 20 mg/kg administered per os (PO), amphotericin B 0.3 mg/kg IP, and a vehicle control. Treatments were administered 2 hours post-infection (Day 1) and again on Day 4 of the study for a total of 2 doses. Mice were monitored daily and a survival curve was generated. CFU groups were sacrificed on Day 8 of the study. One kidney was removed from each mouse, homogenized, plated on potato dextrose agar (PDA), and incubated at 35° C. for 2 days to determine CFU. The remaining survival mice were monitored until the end of the study (Day 14).

[1] = tested on: C. albicans SC-5314 biofilms; assay: Adhesion phase biofilms (prevention) on silicone elastomer discs; type: cell-based, Candida albicans; conditions: 1 and 4 μg/ml
Experimental: (§1) Biofilms were formed on silicone elastomer (SE) discs using a catheter-associated-biofilm model (Chandra et al., Nature Protocols 3:1909, 2008; Chandra et al., J. […] Chandra et al., J. Dental Research 80: 903, 2001). For evaluation of activity against adhesion phase biofilms (prevention), Candida cells were adhered to catheter discs for 90 min. […] Discs incubated with fluconazole or media alone were used as controls in all experiments. […] Chandra et al., J. […] Chandra et al., J. Dental Research 80: 903, 2001). Following incubation with drugs, discs were transferred to fresh plates containing phosphate buffered saline with XTT and menadione, incubated for 3 h at 37° C. and optical density was read at 492 nm. Separate batches of biofilms were stained with fluorescent dyes (FUN1™, CONA) and observed under Confocal Scanning Laser Microscope (CSLM) to evaluate biofilm architecture and thickness (Chandra et al., Nature Protocols 3:1909, 2008; Chandra et al., J. […] Statistical analyses for all data were performed using GraphPad Prism 6 software. Drug treated groups were compared to control untreated groups using unpaired t-tests.

[2] = tested on: C. albicans SC-5314 biofilms; assay: Mature phase biofilms (treatment) on silicone elastomer discs; type: cell-based, Candida albicans; conditions: 1 and 4 μg/ml
Experimental: as §1

C. albicans strain 529L = assay: Rat model of vulvovaginal candidiasis, vaginal lavage and tissue burden; type: in vivo, Candida albicans
Experimental: Animal Strain. Wistar rats were supplied by Harlan Laboratories UK and were specific pathogen free. Rats weighed […] at the time of surgery. Ovariectomies were performed. Rats were allowed 4-7 days recovery before transportation to the facility where the experiment was to be performed. Following arrival, rats were allowed at least 4 days acclimatization before start of the experiment. Rats weighed 100-120 g at the time of ovariectomy and were about 300 g at start of the experiment.
Pre-conditioning. Female Wistar rats underwent ovariectomy at least 10 days prior to the study commencing. They were further pre-conditioned by treatment with 5 mg/kg 17-β-estradiol administered subcutaneously (SC) every other day on Days −7, −5, −3 and −1 prior to infection with C. albicans strain 529. Estradiol treatment continued every other day throughout the study to 7 days post-infection.
Yeast Isolate. Candida albicans strain 529L was used in this chronic rat vaginal infection model.
Infection. Yeast strains were inoculated aerobically onto Sabouraud dextrose agar media (SAB) containing 0.05 mg/mL chloramphenicol and incubated at 30° C. for 48-72 h. 18-24 h prior to infection, Yeast Peptone Dextrose (YPD) broths were inoculated with 2-3 isolated colonies from agar plates and incubated overnight (37° C. on an orbital shaker). Broths containing C. albicans strain 529L were washed 3 times with sterile phosphate buffered saline (PBS) before dilution to the correct inoculum for infection. Cell counts were determined using a haemocytometer and confirmed by quantitative culture on Sabouraud dextrose agar.
Rats were infected with 0.1 mL by intravaginal administration under inhaled isoflurane anaesthesia using about 9.8×10^5 CFU/mL (9.8×10^4 CFU/Rat) C. albicans strain 529L
Treatment. […] The fluconazole treatment also started at 24 h post infection but was administered by the PO route at the dose volume and frequency shown in Table 7. The study design is further outlined in FIG. 19.
(§2) Reduction in weight and general loss of condition due to estradiol treatment are also typical in this rat model. Colonization with C. albicans was determined by quantitative culture of daily vaginal lavage samples. Rats were euthanized 9 days post infection and C. albicans determined by quantitative culture of vaginal tissue (including uterine horns).
Lavage samples were obtained on Days 1 (pre-treatment), 2, 3, 5, 7, and 9 days post infection by flushing rat vaginas 4 times with 0.1 mL pre-warmed sterile PBS. Following euthanasia, vaginal tissue including uterine horns was removed prior to weighing. Tissues were homogenized in 2 mL sterile PBS using a bead-beater. Vaginal wash and tissue homogenates were diluted appropriately then quantitatively cultured on to Sabouraud dextrose agar containing 0.05 mg/mL chloramphenicol and incubated at 37° C. for up to 72 h before being counted.
Statistical analysis. Data were analyzed using StatsDirect software (version 2.7.8) using the non-parametric Kruskal-Wallis test and if this was statistically significant all pairwise comparisons were analyzed (Conover-Inman).

[3] = type: in vivo, Wistar rats; conditions: rat, in vivo
Experimental: Endpoints. The rats were monitored at a frequency appropriate for their clinical condition. Rat weights were recorded at least once daily to ensure animals remained within ethical limits.
as §2

[4] = lavage Day 1 post treatment (Day 2 post infection), 20 mg/kg PO dosed once
[5] = lavage Day 1 post treatment (Day 2 post infection), 20 mg/kg PO dosed twice
[6] = lavage Day 2 post treatment (Day 3 post infection), 20 mg/kg PO dosed once
[7] = lavage Day 2 post treatment (Day 3 post infection), 20 mg/kg PO dosed twice
[8] = lavage Day 4 post treatment (Day 5 post infection), 20 mg/kg PO dosed once
[9] = lavage Day 4 post treatment (Day 5 post infection), 20 mg/kg PO dosed twice
[10] = lavage Day 6 post treatment (Day 7 post infection), 20 mg/kg PO dosed once
[11] = lavage Day 6 post treatment (Day 7 post infection), 20 mg/kg PO dosed twice
[12] = lavage Day 8 post treatment (Day 9 post infection), 20 mg/kg PO dosed once
[13] = lavage Day 8 post treatment (Day 9 post infection), 20 mg/kg PO dosed twice
[14] = terminal vaginal tissue Day +9 post infection, 20 mg/kg PO dosed once
[15] = terminal vaginal tissue Day +9 post infection, 20 mg/kg PO dosed twice
[16] = vaginal lavage Day 1 post infection, pre-treatment, 20 mg/kg PO dosed once group
[17] = vaginal lavage Day 1 post infection, pre-treatment, 20 mg/kg PO dosed twice group

OC(Cn1cncn1)(Cn1cncn1)c1ccc(F)cc1F [Fluconazole, fluconazole, reference compound]
percent survival at the end of the study (Candida auris): 0% | thickness of biofilms [1]: no effect on biofilm thickness | biofilm metabolic activity (XTT) ([1]; 24 h, P>0.05): did not inhibit biofilm formation | biofilm architecture (CSLM) [2]: did not affect Candida biofilms | thickness of biofilms [2]: had no effect | biofilm metabolic activity (XTT) ([2]; 24 h, P>0.05): neither concentrations of fluconazole (1 and 4 μg/ml) affected these biofilms | terminal vaginal tissue burden (C. albicans strain 529L; 20 mg/kg PO once or twice, all rats, Day 9): below the limit of detection | lavage burden (C. albicans strain 529L; Day 5 post infection, 20 mg/kg PO once or twice, all rats): below the limit of detection | Group Geometric mean (C. albicans strain 529L; [4]): 1.50 × 10^2 CFU/mL | Log Group Geometric mean (C. albicans strain 529L; [4]): 2.18 CFU/mL | Log reduction from vehicle control (C. albicans strain 529L; [4]): 1.52 CFU/mL | Group Geometric mean (C. albicans strain 529L; [5]): 1.27 × 10^2 CFU/mL | Log Group Geometric mean (C. albicans strain 529L; [5]): 2.10 CFU/mL | Log reduction from vehicle control (C. albicans strain 529L; [5]): 1.59 CFU/mL | burden vs vehicle, statistics (C. albicans strain 529L; lavage Day 2 post infection): neither the CD101 nor fluconazole burden was statistically different from the vehicle burden | reduction in burden (C. albicans strain 529L; lavage Day 2 post infection, fluconazole 20 mg/kg PO): about 1.6 Log10 CFU/mL | Group Geometric mean (C. albicans strain 529L; [6]): 1.00 CFU/mL | Log Group Geometric mean (C. albicans strain 529L; [6]): 0.00 CFU/mL | Log reduction from vehicle control (C. albicans strain 529L; [6]): 3.57 CFU/mL | Group Geometric mean (C. albicans strain 529L; [7]): 1.49 CFU/mL | Log Group Geometric mean (C. albicans strain 529L; [7]): 0.17 CFU/mL | Log reduction from vehicle control (C. albicans strain 529L; [7]): 3.40 CFU/mL | rats having burden below the limit of detection (C. albicans strain 529L; lavage Day 3 post infection, 20 mg/kg PO once or twice): 11/12 | burden vs vehicle, statistics (C. albicans strain 529L; lavage Day 3 post infection, all treatments): statistically different from the vehicle treatments | Group Geometric mean (C. albicans strain 529L; [8]): 1.00 CFU/mL | Log Group Geometric mean (C. albicans strain 529L; [8]): 0.00 CFU/mL | Log reduction from vehicle control (C. albicans strain 529L; [8]): 4.22 CFU/mL | Group Geometric mean (C. albicans strain 529L; [9]): 1.00 CFU/mL | Log Group Geometric mean (C. albicans strain 529L; [9]): 0.00 CFU/mL | Log reduction from vehicle control (C. albicans strain 529L; [9]): 4.22 CFU/mL | Group Geometric mean (C. albicans strain 529L; [10]): 1.00 CFU/mL | Log Group Geometric mean (C. albicans strain 529L; [10]): 0.00 CFU/mL | Log reduction from vehicle control (C. albicans strain 529L; [10]): 4.18 CFU/mL | Group Geometric mean (C. albicans strain 529L; [11]): 1.00 CFU/mL | Log Group Geometric mean (C. albicans strain 529L; [11]): 0.00 CFU/mL | Log reduction from vehicle control (C. albicans strain 529L; [11]): 4.18 CFU/mL | Group Geometric mean (C. albicans strain 529L; [12]): 1.00 CFU/mL | Log Group Geometric mean (C. albicans strain 529L; [12]): 0.00 CFU/mL | Log reduction from vehicle control (C. albicans strain 529L; [12]): 4.30 CFU/mL | Group Geometric mean (C. albicans strain 529L; [13]): 1.00 CFU/mL | Log Group Geometric mean (C. albicans strain 529L; [13]): 0.00 CFU/mL | Log reduction from vehicle control (C. albicans strain 529L; [13]): 4.30 CFU/mL | Group Geometric mean (C. albicans strain 529L; [14]): 1.00 CFU/g | Log Group Geometric mean (C. albicans strain 529L; [14]): 0.00 CFU/g | Log reduction from vehicle control (C. albicans strain 529L; [14]): 5.49 CFU/g | Group Geometric mean (C. albicans strain 529L; [15]): 1.00 CFU/g | Log Group Geometric mean (C. albicans strain 529L; [15]): 0.00 CFU/g | Log reduction from vehicle control (C. albicans strain 529L; [15]): 5.49 CFU/g | Group Geometric mean (C. albicans strain 529L; [16]): 3.16 × 10^3 CFU/mL | Log Group Geometric mean (C. albicans strain 529L; [16]): 3.50 CFU/mL | Log reduction from vehicle control (C. albicans strain 529L; [16]): −1.06 CFU/mL | Group Geometric mean (C. albicans strain 529L; [17]): 1.04 × 10^3 CFU/mL | Log Group Geometric mean (C. albicans strain 529L; [17]): 3.02 CFU/mL | Log reduction from vehicle control (C. albicans strain 529L; [17]): −0.58 CFU/mL | tolerability [3]: well tolerated with no adverse events observed
